In patent US7151165B2, “Antibodies immunospecific for a novel human G-protein coupled receptor family” (priority 1999, dated 2006):

Columns and labels:
IGS4A = biological target: T1, IGS4A (Homo sapiens, UniProt Q9GZQ4, A395T); test: FLIPR intracellular calcium mobilisation in CHOGα16-IGS4 cells (IGS4A); type: cell-based; details: range 10^−6–10^−12 M
T1 construct: expressed in transfected cells; host or cells: CHOGα16 (CHO cells stably expressing Gα16, Molecular Devices), transfected with IGS4-pcDNA3.1
T1 sequence (Q9GZQ4 whole entry A395T): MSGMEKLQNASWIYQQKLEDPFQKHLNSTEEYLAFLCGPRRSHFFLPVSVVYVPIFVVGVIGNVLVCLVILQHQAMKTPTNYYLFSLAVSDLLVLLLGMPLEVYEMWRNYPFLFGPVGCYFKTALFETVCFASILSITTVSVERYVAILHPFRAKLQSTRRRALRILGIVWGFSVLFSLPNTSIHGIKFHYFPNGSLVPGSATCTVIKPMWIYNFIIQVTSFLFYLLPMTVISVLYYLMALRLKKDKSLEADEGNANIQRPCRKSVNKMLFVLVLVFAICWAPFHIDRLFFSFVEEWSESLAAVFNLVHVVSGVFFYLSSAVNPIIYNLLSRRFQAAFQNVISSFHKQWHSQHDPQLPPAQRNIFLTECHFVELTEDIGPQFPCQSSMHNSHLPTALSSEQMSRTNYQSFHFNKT
Procedure: (§1) A. Method and Materials for IGS-4 Transfected CHOGα16IGS4 cells.
(§2) The following materials were used in the experiments: Vector containing IGS4-DNA sequence (IGS4-pcDNA3.1); SuperFect Transfection Reagent (Qiagen): Nut-Mix F12 (Gibco) with 10% FCS, 0.028 mg/ml Gentamycin (Gibco); 0.22 mg/ml Hygromycin (Gibco).
(§3) Materials used for clone selection: Nut-Mix F12 with 10% FCS; 0.028 mg/ml Gentamycin; 0.22 mg/ml Hygromycin and 0.55 mg/ml Geneticin (Gibco).
The following method was applied: Transfection with SuperFect Transfection Reagent was carried out as described by the manufacturer (Qiagen). Cells were plated in 24-well plates to 50% confluence. Per well […] plasmid-DNA with 1 μl SuperFect Transfection Reagent was added. After 24 hours the medium was changed and transfected cell clones were selected by Geneticin-containing selection-medium. […]
The method was worked as follows: The 2 mM stock of dye was mixed with an equal volume of 20% (w/v) pluronic acid immediately before adding to the loading-Buffer. […] In order to calculate the, background fluorescence, some wells were not dye loaded. The background fluorescence in these wells results from autofluorescence of the cells. After dye loading, cell were washed three times with Wash-Buffer (automated Denley cell washer) to reduce the basal fluorescence to 20.000–25.000 counts above background. […]

IGS4B = biological target: T2, IGS4B (Homo sapiens, UniProt Q9GZQ4, A395T/F315L/M388V/P383L/S298T); test: FLIPR intracellular calcium mobilisation in CHOGα16-IGS4 cells (IGS4B); type: cell-based; details: for maximal activation of IGS4B: comparison among the three neuromedin U isoforms; for IGS4-mediated calcium mobilisation in the FLIPR assay: range 10^−6–10^−12 M, IGS4B
T2 construct: expressed in transfected cells; host or cells: CHOGα16 (CHO cells stably expressing Gα16, Molecular Devices), transfected with IGS4-pcDNA3.1
T2 sequence (Q9GZQ4 whole entry S298T/F315L/P383L/M388V/A395T, canonical isoform): as the sequence (Q9GZQ4 whole entry A395T) above, with S298T, F315L, P383L, M388V counted along it
Procedure: as §1, §2, §3
The following method was applied: Transfection with SuperFect Transfection Reagent was carried out as described by the manufacturer (Qiagen). Cells were plated in 24-well plates to 50% confluence. Per well […] plasmid-DNA with 1 μl SuperFect Transfection Reagent was added. After 24 hours the medium was changed and transfected cell clones were selected by Geneticin-containing selection-medium. IGS4 expressing cell clones were characterized by RT-PCR and Northern Blot.
B. Method and Materials for FLIPR-Assay.
The method was performed as follows: Cells were seeded 24 hours or 48 hours prior to the experiment into black wall microplates. The cell density was […] cells/well for 48 hour incubation and […] cells/well for 24 hour incubation. All steps were done under sterile conditions.
In order to observe changes in intracellular calcium levels, cells must be ‘loaded’ with a calcium-sensitive fluorescent dye. This dye, called FLUO-4 (Molecular Probes) is excited at 488 nm, and emits light in the 500–560 nm range, only if a complex with calcium is formed. The dye was used at 4 μM final concentration. Pluronic acid was added to increase dye solubility and dye uptake into the cells. Probenicid, an anion exchange protein inhibitor, was added to the dye medium to increase dye retention in the cells.
The method was worked as follows: The 2 mM stock of dye was mixed with an equal volume of 20% (w/v) pluronic acid immediately before adding to the loading-Buffer. The growth-medium was aspirated out of the well without disturbing the confluent cell layer. 100 μl loading medium was dispensed into each well using a Multidrop (Labsystems). Cell were incubated in a 5% CO2, 37° C. incubator for 30 minutes. In order to calculate the, background fluorescence, some wells were not dye loaded. The background fluorescence in these wells results from autofluorescence of the cells. After dye loading, cell were washed three times with Wash-Buffer (automated Denley cell washer) to reduce the basal fluorescence to 20.000–25.000 counts above background. 100 l buffer was added and cell were incubated at 37° C. till start of the experiment. […]
The resulting CHOGα16-IGS4 cells were functionally screened on a Fluorometric Imaging Plate Reader (FLIPR) to measure mobilisation of intracellular calcium in response to putative peptide ligands. […]

IGS4 = test: Basal intracellular cAMP in CHOGα16-IGS4 cells; type: cell-based, human; details: 1 and 10 μM; data not shown

maximal activation of IGS4B (IGS4B) | Substance | IGS4-mediated calcium mobilisation in the FLIPR assay (IGS4A) | IGS4-mediated calcium mobilisation in the FLIPR assay (IGS4B) | basal levels of intracellular cAMP (IGS4)
same maximal activation | neuromedin U-25 | induced specific IGS4-mediated calcium mobilisation | induced specific IGS4-mediated calcium mobilisation | 
same maximal activation | neuromedin U-8 | induced specific IGS4-mediated calcium mobilisation | induced specific IGS4-mediated calcium mobilisation | not modulated
